Results: US20060069132A1, “Azolecarboxamide herbicides” (priority 2004, published 2006)

Assays:
[1] = test system: barnyardgrass; test: Test A pre-/postemergence herbicide test; assay type: in vivo, Echinochloa crus-galli
How it was run: (§1)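 Seeds sown in sandy loam received a preemergence directed soil spray of compound in non-phytotoxic solvent with surfactant; postemergence plants (2–10 cm, one- to two-leaf stage) were sprayed to runoff at the same time. After ~10 days in greenhouse, injury was rated visually versus untreated controls (0 = no effect, 100 = complete control).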

[2] = test system: large crabgrass; test: Test A pre-/postemergence herbicide test; assay type: in vivo, Digitaria sanguinalis
How it was run: as §1

[3] = test system: giant foxtail; test: Test A pre-/postemergence herbicide test; assay type: in vivo, Setaria faberi
How it was run: as §1

[4] = test system: morningglory; test: Test A pre-/postemergence herbicide test; assay type: in vivo, Ipomoea spp.
How it was run: as §1

[5] = test system: redroot pigweed; test: Test A pre-/postemergence herbicide test; assay type: in vivo, Amaranthus retroflexus
How it was run: as §1

[6] = test system: velvetleaf; test: Test A pre-/postemergence herbicide test; assay type: in vivo, Abutilon theophrasti
How it was run: as §1

[7] = test system: barnyardgrass; test: Test B pre-/postemergence herbicide test; assay type: in vivo, Echinochloa crus-galli; settings: for Barnyardgrass plant response rating: postemergence, visual rating, scale 0 (no effect) to 100 (complete control)
How it was run: (§2)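 Seeds were planted and treated preemergence with compounds formulated in a non-phytotoxic solvent mixture containing surfactant, while plants at the 1- to 4-leaf stage (2 to 18 cm) received postemergence sprays. Flooded paddy plants were grown to the 2-leaf stage. After 13 to 15 days in a greenhouse, injury was visually rated 0–100 against untreated controls.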

[8] = test system: Surinam grass; test: Test B pre-/postemergence herbicide test; assay type: in vivo, Urochloa decumbens; settings: for Surinam Grass plant response rating: postemergence, visual rating, scale 0 (no effect) to 100 (complete control)
How it was run: as §2

[9] = test system: cocklebur; test: Test B pre-/postemergence herbicide test; assay type: in vivo, Xanthium strumarium; settings: for Cocklebur plant response rating: postemergence, visual rating, scale 0 (no effect) to 100 (complete control)
How it was run: as §2

[10] = test system: corn; test: Test B pre-/postemergence herbicide test; assay type: in vivo, Zea mays; settings: for Corn plant response rating: postemergence, visual rating, scale 0 (no effect) to 100 (complete control)
How it was run: as §2

[11] = test system: large crabgrass; test: Test B pre-/postemergence herbicide test; assay type: in vivo, Digitaria sanguinalis; settings: for Crabgrass, Large plant response rating: postemergence, visual rating, scale 0 (no effect) to 100 (complete control)
How it was run: as §2

[12] = test system: giant foxtail; test: Test B pre-/postemergence herbicide test; assay type: in vivo, Setaria faberi; settings: for Foxtail, Giant plant response rating: postemergence, visual rating, scale 0 (no effect) to 100 (complete control)
How it was run: as §2

[13] = test system: lambsquarters; test: Test B pre-/postemergence herbicide test; assay type: in vivo, Chenopodium album; settings: for Lambsquarters plant response rating: postemergence, visual rating, scale 0 (no effect) to 100 (complete control)
How it was run: as §2

[14] = test system: morningglory; test: Test B pre-/postemergence herbicide test; assay type: in vivo, Ipomoea coccinea; settings: for Morningglory plant response rating: postemergence, visual rating, scale 0 (no effect) to 100 (complete control)
How it was run: as §2

[15] = test system: pigweed; test: Test B pre-/postemergence herbicide test; assay type: in vivo, Amaranthus retroflexus; settings: for Pigweed plant response rating: postemergence, visual rating, scale 0 (no effect) to 100 (complete control)
How it was run: as §2

[16] = test system: rice; test: Test B pre-/postemergence herbicide test; assay type: in vivo, Oryza sativa; settings: preemergence
How it was run: as §2

[17] = test system: velvetleaf; test: Test B pre-/postemergence herbicide test; assay type: in vivo, Abutilon theophrasti; settings: for Velvetleaf plant response rating: postemergence, visual rating, scale 0 (no effect) to 100 (complete control)
How it was run: as §2

[18] = test system: blackgrass; test: Test B postemergence herbicide test; assay type: in vivo, Alopecurus myosuroides; settings: postemergence, visual rating, scale 0 (no effect) to 100 (complete control)
How it was run: (§3)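 Postemergence plants were sprayed with formulated test chemicals at 2 to 18 cm height (1- to 4-leaf stage); paddy species were grown to the 2-leaf stage. After 13 to 15 days in a greenhouse, injury was rated visually against untreated controls on a 0–100 scale (0 = no effect, 100 = complete control).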

[19] = test system: wheat; test: Test B postemergence herbicide test; assay type: in vivo, Triticum aestivum; design: key to Wheat plant response rating: 0 = no effect, 100 = complete control; settings: postemergence, visual rating, scale 0 (no effect) to 100 (complete control)
How it was run: (§4)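 Read-out: visual comparison with controls, scored 0 to 100, where 100 means complete control and 0 no effect. Formulated chemicals were applied postemergence to plants 2–18 cm tall (1- to 4-leaf), or to flooded-paddy plants at the 2-leaf stage, then held 13 to 15 days under glass.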

[20] = test system: wild oat; test: Test B postemergence herbicide test; assay type: in vivo, Avena fatua; settings: postemergence, visual rating, scale 0 (no effect) to 100 (complete control)
How it was run: as §4

[21] = test system: rice; test: Test B flooded paddy test; assay type: in vivo, Oryza sativa; settings: 1000 g ai/ha, visual rating, scale 0 to 100 (0 no effect, 100 complete control), 13 to 15 days
How it was run: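 Visual ratings, 0 (no effect) to 100 (complete control), made versus controls after 13–15 d greenhouse. Paddy plants treated at 2-leaf stage; postemergence plants at 1- to 4-leaf stage, 2–18 cm tall.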

[22] = test system: small flower umbrella sedge; test: Test B flooded paddy test; assay type: in vivo, Cyperus difformis; settings: 1000 g ai/ha, visual rating, scale 0 to 100 (0 no effect, 100 complete control), 13 to 15 days
How it was run: as §3

[23] = test system: ducksalad; test: Test B flooded paddy test; assay type: in vivo, Heteranthera limosa; settings: 1000 g ai/ha, visual rating, scale 0 to 100 (0 no effect, 100 complete control), 13 to 15 days
How it was run: as §3

[24] = test system: barnyardgrass; test: Test B flooded paddy test; assay type: in vivo, Echinochloa crus-galli; settings: 1000 g ai/ha, visual rating, scale 0 to 100 (0 no effect, 100 complete control), 13 to 15 days
How it was run: as §3

[25] = Postemergence, 500 g ai/ha, 0 to 100 scale, 0 no effect, 100 complete control
[26] = Postemergence, 2000 g ai/ha, 0 to 100 scale, 0 no effect, 100 complete control
[27] = Preemergence, 2000 g ai/ha, visual rating, 0 to 100 scale (0 no effect, 100 complete control)
[28] = preemergence, 500 g ai/ha, visual injury, 0 to 100 scale (0 no effect, 100 complete control)
[29] = 125 g ai/ha, 0 = no effect, 100 = complete control, preemergence
[30] = 500 g ai/ha, visual rating 0-100, 0 no effect, 100 complete control, preemergence

CCOC(=O)c1cccc(NC(=O)c2sc(C(C)(C)C)nc2CC)c1 [Compound 204]
Barnyardgrass plant response rating [1, 25]: 25 | Plant response rating, Barnyardgrass [1, 26]: 30 | Barnyardgrass plant response rating [1, 27]: 5 | Barnyardgrass plant response rating [1, 28]: 0 | Crabgrass, Large plant response rating [2, 25]: 30 | Plant response rating, Crabgrass, Large [2, 26]: 30 | Crabgrass, Large plant response rating [2, 27]: 10 | Crabgrass, Large plant response rating [2, 28]: 0 | Foxtail, Giant plant response rating [3, 25]: 25 | Plant response rating, Foxtail, Giant [3, 26]: 25 | Foxtail, Giant plant response rating [3, 27]: 10 | Foxtail, Giant plant response rating [3, 28]: 0 | Morningglory plant response rating [4, 25]: 20 | Plant response rating, Morningglory [4, 26]: 15 | Morningglory plant response rating [4, 27]: 25 | Morningglory plant response rating [4, 28]: 10 | Pigweed plant response rating [5, 25]: 50 | Plant response rating, Pigweed [5, 26]: 60 | Pigweed plant response rating [5, 27]: 10 | Pigweed plant response rating [5, 28]: 0 | Velvetleaf plant response rating [6, 25]: 40 | Plant response rating, Velvetleaf [6, 26]: 60 | Velvetleaf plant response rating [6, 27]: 25 | Velvetleaf plant response rating [6, 28]: 5 | Barnyardgrass plant response rating (0 to 100 scale) [7, 29]: 0 | Plant response rating, Barnyardgrass [7, 30]: 0 | Barnyardgrass plant response rating ([7]; 125 g ai/ha): 10 | Barnyardgrass plant response rating ([7]; 500 g ai/ha): 10 | Surinam Grass plant response rating (0 to 100 scale) [8, 29]: 0 | Plant response rating, Surinam Grass [8, 30]: 0 | Surinam Grass plant response rating ([8]; 125 g ai/ha): 20 | Surinam Grass plant response rating ([8]; 500 g ai/ha): 50 | Cocklebur plant response rating (0 to 100 scale) [9, 29]: 0 | Plant response rating, Cocklebur [9, 30]: 0 | Cocklebur plant response rating ([9]; 125 g ai/ha): 90 | Cocklebur plant response rating ([9]; 500 g ai/ha): 90 | Corn plant response rating (0 to 100 scale) [10, 29]: 0 | Plant response rating, Corn [10, 30]: 0 | Corn plant response rating ([10]; 125 g ai/ha): 20 | Corn plant response rating ([10]; 500 g ai/ha): 20 | Crabgrass, Large plant response rating (0 to 100 scale) [11, 29]: 0 | Plant response rating, Crabgrass, Large [11, 30]: 0 | Crabgrass, Large plant response rating ([11]; 125 g ai/ha): 10 | Crabgrass, Large plant response rating ([11]; 500 g ai/ha): 10 | Foxtail, Giant plant response rating (0 to 100 scale) [12, 29]: 0 | Plant response rating, Foxtail, Giant [12, 30]: 0 | Foxtail, Giant plant response rating ([12]; 125 g ai/ha): 10 | Foxtail, Giant plant response rating ([12]; 500 g ai/ha): 20 | Lambsquarters plant response rating (0 to 100 scale) [13, 29]: 0 | Plant response rating, Lambsquarters [13, 30]: 0 | Lambsquarters plant response rating ([13]; 125 g ai/ha): 30 | Lambsquarters plant response rating ([13]; 500 g ai/ha): 50 | Plant response rating, Morningglory [14, 30]: 10 | Morningglory plant response rating ([14]; 125 g ai/ha): 20 | Morningglory plant response rating ([14]; 500 g ai/ha): 40 | Pigweed plant response rating (0 to 100 scale) [15, 29]: 0 | Plant response rating, Pigweed [15, 30]: 10 | Pigweed plant response rating ([15]; 125 g ai/ha): 50 | Pigweed plant response rating ([15]; 500 g ai/ha): 70 | Rice plant response rating (0 to 100 scale) ([16]; 125 g ai/ha, 0 = no effect, 100 = complete control): 0 | Plant response rating, Rice ([16]; 500 g ai/ha, visual rating 0-100, 0 no effect, 100 complete control): 0 | Velvetleaf plant response rating (0 to 100 scale) [17, 29]: 0 | Plant response rating, Velvetleaf [17, 30]: 0 | Velvetleaf plant response rating ([17]; 125 g ai/ha): 60 | Velvetleaf plant response rating ([17]; 500 g ai/ha): 70 | Blackgrass plant response rating ([18]; 125 g ai/ha): 20 | Blackgrass plant response rating ([18]; 500 g ai/ha): 20 | Wheat plant response rating ([19]; 125 g ai/ha): 10 | Wheat plant response rating ([19]; 500 g ai/ha): 30 | Oat, Wild plant response rating ([20]; 125 g ai/ha): 10 | Oat, Wild plant response rating ([20]; 500 g ai/ha): 20 | Rice plant response rating [21]: 30 | Sedge, Umbrella plant response rating [22]: 80 | Ducksalad plant response rating [23]: 40 | Barnyardgrass plant response rating [24]: 20
